Reference: US11684597B2, “Administration of tailored feedstock to increase nitro-containing amphenicol antibiotic susceptibility” (U.S. Army Research Laboratory, priority 2019, dated 2023)

Tested on: Clostridium acetobutylicum strain ATCC 824
Test: antibiotic sensitivity test (MIC, OD600 in 96-well plate, anaerobic)
Type: cell-based
Conditions: for MIC (final concentration of chloramphenicol): after 24 h of growth
Method: Bacterial culture conditions and strains have been previously published. All strains and cultures were maintained or grown in an atmosphere of 5.0% H2, 5.0% CO2, and 90.0% N2. Clostridium acetobutylicum strain ATCC 824 was obtained from ATCC and cultured using company protocol at 37° C. into Clostridial growth medium or CGM containing 0.75 g KH2PO4, 0.75 g K2HPO4, 1.0 g NaCl, 0.017 g MnSO4.5H2O, 0.70 g MgSO4.7H2O, 0.01 g FeSO4.7H2O, 2.0 g 1-asparagine, 5.0 g yeast extract, 2.0 g (NH4)2SO4, and 0.5% final concentration of desired carbohydrate—D-glucose, D-galacturonic acid, D-gluconic acid—at pH 6.5. Active cultures from initial growth stock were added to potato glucose medium to be maintained and stored as a spore solution. Potato glucose medium or PGM contains per liter of H2O—150 g grated fresh potato, 10 g D-glucose, 0.5 g (NH4)SO4, and 3 g CaCO3. The medium was boiled for 1 hour and strained through gauze before sterilization and use for culture. Spore solution was activated for culturing through a heat shock at 80° C. for 9 minutes. Shocked spore solution was added to CGM containing the feed stock of choice and grown to late log of 0.8 at optical density of 600 nm (OD600) at 37° C. Theses cultures were then used to perform antibiotic sensitivity experiments.
The protocol for antibiotic sensitivity test was performed as follows in anaerobic conditions: 200 μL of CGM medium containing either 0.5% D-galacturonate or D-glucose was aliquoted into a sterile Costar® 96-well polystyrene flat bottom plate in triplicate per test condition. Chloroamphenicol was dissolved in ethanol at different concentrations. Each chloroamphenicol concentration was added to each well in triplicate and considered a test condition. Test conditions included addition of 1 μL of ethanol, 1 of sterile water, 1 μL 0.1 mg mL^−1, 1 μL 0.25 mg mL^−1, 1 μL 0.5 mg mL^−1, 1 μL 1 mg mL^−1, 1 μL 2.5 mg mL^−1, 1 μL 5 mg mL^−1, 1 μL 10 mg mL^−1, 1 μL 20 mg mL^−1, and 1 μL 10 mg mL^−1. […] The optical density of the cultures in the wells were measured at 600 nm via a commercially available plate reader. […]

- MIC (final concentration of chloramphenicol) (C. acetobutylicum grown in CGM with 0.5% D-galacturonate (galacturonic acid) as feedstock): 2.4 µg/mL
- MIC (final concentration of chloramphenicol) (C. acetobutylicum grown in CGM with 0.5% D-glucose as feedstock): 23.7 µg/mL
Structure (SMILES): O=C(N[C@H](CO)[C@H](O)c1ccc([N+](=O)[O-])cc1)C(Cl)Cl [chloramphenicol]
- increase of antibiotic susceptibility with oxidized feed stock compared to glucose as feed stock (C. acetobutylicum, in vitro, galacturonate vs glucose): 10 fold
